Test results taken from patent US11661431B2, “Thienopyrrole compounds” (Gilead Sciences, Inc., priority 2021, dated 2023).

Assays:
TLR7 = TLR7 (Homo sapiens (Human), UniProt Q9NYK1); test: TLR7 human peripheral blood mononuclear cell (PBMC) cell-based assay (GS-986 as agonist; IL-6 and IFNα readout); details: human PBMCs, TLR7 agonist GS-986 at 400 nM, 6 hours, antagonist potency; read-out: TLR-7 EC50
Protocol: Human peripheral blood mononuclear cells (PBMCs) consist of lymphocytes, monocytes and dendritic cells that express TLR7, TLR8 and TLR9. These cells respond to TLR7, TLR8 and TLR9 ligand stimulation and produce cytokines and chemokines in vitro and in vivo. Human PBMCs are therefore suitable to be used in a cell-based assay to assess the in vitro potency of a TLR 7, 8, and/or 9 antagonist.
After counting, the cell density was adjusted to 2 million cells/ml and incubated for 1 hour at 37° C., 5% CO2 for recovery. Following the recovery, the cells were plated by adding 50 μl per well (100,000 cells) to 384-well cell culture plates (Greiner) containing 250 nl of test antagonists in 100% DMSO per well, in a 10 points dose response in quadruplicates. PBMCs were incubated in the presence of test antagonists for one hour at 37° C., 5% CO2 before being stimulated with a TLR7 or TLR9agonist. […] PBMCs were incubated in the presence of the test antagonist and the TLR7 (or TLR9) agonist for an additional 6 hours at 37° C., 5% CO2. At the end of the incubation, the cell culture plates were centrifuged at 500 g for 5 min, and the cell culture supernatant was collected. The level of cytokines (IL-6 and IFNα) in the supernatant was measured by electrochemiluminescence immunoassays (Mesoscale Discovery) following manufacturer's recommended protocols.

TLR8 = TLR8 (Homo sapiens (Human), UniProt Q9NR97); test: TLR8 human peripheral blood mononuclear cell (PBMC) cell-based assay (Compound A as agonist; TNFα and IL12p40 readout); details: human PBMCs, TLR8 agonist Compound A at 800 nM, 6 hours, antagonist potency; read-out: TLR-8 EC50
Chain of TLR8 (Q9NR97 27-1041): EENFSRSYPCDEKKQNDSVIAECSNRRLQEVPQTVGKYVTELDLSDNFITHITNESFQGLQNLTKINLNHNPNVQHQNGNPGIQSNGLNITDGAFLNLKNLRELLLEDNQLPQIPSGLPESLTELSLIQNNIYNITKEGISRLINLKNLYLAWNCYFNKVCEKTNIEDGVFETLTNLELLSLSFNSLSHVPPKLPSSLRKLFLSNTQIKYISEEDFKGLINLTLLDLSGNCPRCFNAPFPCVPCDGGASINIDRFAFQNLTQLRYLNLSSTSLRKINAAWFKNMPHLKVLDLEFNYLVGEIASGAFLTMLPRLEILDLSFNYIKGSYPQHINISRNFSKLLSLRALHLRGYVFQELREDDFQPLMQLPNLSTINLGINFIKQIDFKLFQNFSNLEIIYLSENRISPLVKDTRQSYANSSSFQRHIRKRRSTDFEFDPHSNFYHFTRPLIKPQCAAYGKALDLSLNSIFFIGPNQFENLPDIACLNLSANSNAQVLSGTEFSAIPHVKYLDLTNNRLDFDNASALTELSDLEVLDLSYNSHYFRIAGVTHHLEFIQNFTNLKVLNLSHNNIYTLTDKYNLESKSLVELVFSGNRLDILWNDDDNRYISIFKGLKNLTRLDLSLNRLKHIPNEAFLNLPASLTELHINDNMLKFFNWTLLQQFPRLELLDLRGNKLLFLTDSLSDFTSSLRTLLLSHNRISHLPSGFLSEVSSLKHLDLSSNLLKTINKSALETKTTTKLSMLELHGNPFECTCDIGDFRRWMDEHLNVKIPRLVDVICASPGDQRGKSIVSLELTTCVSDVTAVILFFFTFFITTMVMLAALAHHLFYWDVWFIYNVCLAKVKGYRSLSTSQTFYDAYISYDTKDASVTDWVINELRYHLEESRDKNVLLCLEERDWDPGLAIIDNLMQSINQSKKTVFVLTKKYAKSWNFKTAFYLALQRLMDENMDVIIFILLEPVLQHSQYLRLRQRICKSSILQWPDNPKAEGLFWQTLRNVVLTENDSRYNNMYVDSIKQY
Protocol: After counting, the cell density was adjusted to 2 million cells/ml and incubated for 1 hour at 37° C., 5% CO2 for recovery. Following the recovery, the cells were plated by adding 50 μl per well (100,000 cells) to 384-well cell culture plates (Greiner) containing 250 nl of test antagonists in 100% DMSO per well, in a 10 points dose response in quadruplicates. PBMCs were incubated in the presence of antagonists for one hour at 37° C., 5% CO2 before being stimulated with TLR8 agonist. […] PBMCs were incubated in the presence of antagonist and the TLR8 agonist for an additional 6 hours at 37° C., 5% CO2. At the end of the incubation, the cell culture plates were centrifuged at 500 g for 5 min, and the cell culture supernatant was collected. The level of cytokines (TNFα and IL12p40) in the supernatant was measured by electrochemiluminescence immunoassays (Mesoscale Discovery) following manufacturer's recommended protocols.

Chain of TLR7 (Q9NYK1 27-1049): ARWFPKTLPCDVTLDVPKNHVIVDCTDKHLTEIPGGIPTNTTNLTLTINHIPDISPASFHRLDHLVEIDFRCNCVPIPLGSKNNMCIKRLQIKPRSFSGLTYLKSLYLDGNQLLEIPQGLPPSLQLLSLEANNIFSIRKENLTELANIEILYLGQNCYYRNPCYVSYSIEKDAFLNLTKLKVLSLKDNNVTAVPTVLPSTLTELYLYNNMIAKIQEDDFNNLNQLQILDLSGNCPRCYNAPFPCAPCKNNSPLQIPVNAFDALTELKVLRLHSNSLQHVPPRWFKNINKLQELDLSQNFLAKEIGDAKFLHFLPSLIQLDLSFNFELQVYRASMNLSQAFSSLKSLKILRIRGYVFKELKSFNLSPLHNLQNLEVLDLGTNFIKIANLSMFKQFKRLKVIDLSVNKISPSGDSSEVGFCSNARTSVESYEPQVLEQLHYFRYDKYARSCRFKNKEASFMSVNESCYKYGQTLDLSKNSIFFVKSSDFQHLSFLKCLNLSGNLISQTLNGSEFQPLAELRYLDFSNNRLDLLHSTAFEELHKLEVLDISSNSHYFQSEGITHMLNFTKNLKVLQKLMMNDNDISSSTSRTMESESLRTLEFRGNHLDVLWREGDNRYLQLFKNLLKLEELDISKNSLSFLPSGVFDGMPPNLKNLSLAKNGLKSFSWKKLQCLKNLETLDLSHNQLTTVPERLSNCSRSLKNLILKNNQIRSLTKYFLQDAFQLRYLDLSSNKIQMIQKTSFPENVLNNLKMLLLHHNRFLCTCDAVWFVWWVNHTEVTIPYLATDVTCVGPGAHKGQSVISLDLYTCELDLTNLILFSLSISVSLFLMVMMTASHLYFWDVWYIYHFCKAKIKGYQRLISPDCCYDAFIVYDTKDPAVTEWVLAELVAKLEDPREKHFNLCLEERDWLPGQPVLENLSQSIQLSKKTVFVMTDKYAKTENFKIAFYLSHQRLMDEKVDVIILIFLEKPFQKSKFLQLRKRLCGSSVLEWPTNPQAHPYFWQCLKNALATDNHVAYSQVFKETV

| Structure (SMILES) | EC50 (TLR7) | EC50 (TLR8) |
| --- | --- | --- |
| Cc1c(-c2[nH]c3sc([C@@H]4C[C@@H]5C[C@H]4CN5CCS(=O)(=O)N(C)C)c(C)c3c2C(C)C)cn2ncnc2c1C [Example 181] | 0.27 nM | 1.23 nM |
| Cc1c(C2CCN(C(=O)C34CC(F)(CN3)C4)CC2)sc2[nH]c(-c3cc(C)c4ncnn4c3)c(C(C)C)c12 [Example 41] | 0.35 nM | 12.3 nM |
| Cc1c(C23CN(CC(N)=O)CC2C3(F)F)sc2[nH]c(-c3cc(C)c4ncnn4c3)c(C(C)C)c12 (stereo not drawn) [Example 200] | 4.05 nM | 332 nM |
| Cc1c(C23CC2CCN(CC(N)=O)C3)sc2[nH]c(-c3cc(C)c4ncnn4c3)c(C(C)C)c12 (stereo not drawn) [Example 196] | 0.72 nM | 69.5 nM |
| Cc1c(-c2[nH]c3sc([C@@H]4C[C@@H]5C[C@H]4CN5CC(=O)NC4CC4)c(C)c3c2C(C)C)cn2ncnc2c1C [Example 184] | 1.27 nM | 0.34 nM |
| Cc1c(-c2[nH]c3sc(C4CCN(C(=O)C56CCC(CN5)OC6)CC4)c(C)c3c2C(C)C)cn2ncnc2c1C (stereo not drawn) [Example 108] | 0.2 nM | 4.77 nM |
| Cc1nc2c(C)cc(-c3[nH]c4sc(C5CCNCC5)c(C)c4c3C(C)C)cn2n1 [Example 131] | 0.12 nM | 6.92 nM |
| Cc1c(-c2[nH]c3sc([C@@H]4C[C@@H]5C[C@H]4CN5Cc4ccc(=O)[nH]c4)c(C)c3c2C(C)C)cn2ncnc2c1C [Example 178] | 0.06 nM | 0.16 nM |
| Cc1c(C2C3CC2CN(CC(N)=O)C3)sc2[nH]c(-c3cc(C)c4ncnn4c3)c(C(C)C)c12 (stereo not drawn) [Example 65] | 28.1 nM | 33.1 nM |
| Cc1c(-c2[nH]c3sc(C4CC5(CC(N)C5)C4)c(C)c3c2C(C)C)cn2ncnc2c1C (stereo not drawn) [Example 187] | 0.2 nM | 1.09 nM |
| Cc1c(C2CCN(C(=O)[C@H]3CCCN3C)CC2)sc2[nH]c(-c3cc(C)c4ncnn4c3)c(C(C)C)c12 [Example 18] | 0.05 nM | 10.9 nM |
| Cc1c(C2CC3(CCNCC3)C2)sc2[nH]c(-c3cc(C)c4ncnn4c3)c(C(C)C)c12 [Example 123] | 0.16 nM | 2.15 nM |
| Cc1c(C2CCN(CCO)CC2)sc2[nH]c(-c3cc(C)c4ncnn4c3)c(C(C)C)c12 [Example 13, 2-(4-(4-isopropyl-3-methyl-5-(8-methyl-[1,2,4]triazolo[1,5-a]pyridin-6-yl)-6H-thieno[2,3-b]pyrrol-2-yl)piperidin-1-yl)ethan-1-ol] | 1.27 nM | 7.11 nM |
| Cc1c(C2CC3COCC(C2)N3CC(N)=O)sc2[nH]c(-c3cc(C)c4ncnn4c3)c(C(C)C)c12 (stereo not drawn) [Example 30] | 3.42 nM | 257 nM |
| Cc1c(-c2[nH]c3sc([C@@H]4C[C@@H]5C[C@H]4CN5C(=O)[C@H]4COCCN4)c(C)c3c2C(C)C)cn2ncnc2c1C [Example 146] | 0.9 nM | 12.8 nM |
| Cc1c(-c2[nH]c3sc(C4CCN(C(=O)[C@H]5C[C@@]6(CNCCO6)C5)CC4)c(C)c3c2C(C)C)cn2ncnc2c1C [Example 94, [4-[5-(7,8-dimethyl-[1,2,4]triazolo[1,5-a]pyridin-6-yl)-4-isopropyl-3-methyl-6H-thieno[2,3-b]pyrrol-2-yl]-1-piperidyl]-(5-oxa-8-azaspiro[3.5]nonan-2-yl)methanone] | 0.05 nM | 2.3 nM |
| COCc1c(C2CCN(CC(N)=O)CC2)sc2[nH]c(-c3cc(C)c4ncnn4c3)c(C(C)C)c12 [Example 160] | 0.26 nM | 6.51 nM |
| Cc1c(-c2[nH]c3sc([C@@H]4C[C@@H]5CC[C@H]4CN5CC(N)=O)c(C)c3c2C(C)C)cn2ncnc2c1C (single isomer, unassigned) [Example 95] | 0.7 nM | 4.45 nM |
| Cc1c(C2CCN(C(=O)C3(C)COCCN3)CC2)sc2[nH]c(-c3cc(C)c4ncnn4c3)c(C(C)C)c12 (stereo not drawn) [Example 51] | 0.43 nM | 19.3 nM |
| Cc1c(C2CCC3(CC2)CN(C(=O)[C@H]2CCCN2)C3)sc2[nH]c(-c3cc(C)c4ncnn4c3)c(C(C)C)c12 [Example 38] | 0.22 nM | 10.4 nM |
| Cc1c(-c2cnc3c(c2)CNCC3)sc2[nH]c(-c3cc(C)c4ncnn4c3)c(C(C)C)c12 [Example 21] | 1.08 nM | 1.25 nM |

Other lines, results leading:

| EC50 (TLR7) | EC50 (TLR8) | Structure (SMILES) |
| --- | --- | --- |
| 8.47 nM | 79.3 nM | Cc1c(-c2[nH]c3sc(-c4cccc(C5CCNCC5)c4)c(C)c3c2C(C)C)cn2ncnc2c1C [Example 222] |
| 8.77 nM | 76.2 nM | Cc1c(-c2[nH]c3sc(C4CCC45CNC5)c(C)c3c2C(C)C)cn2ncnc2c1C (stereo not drawn) [Example 228, 5-(7,8-dimethyl-[1,2,4]triazolo[1,5-a]pyridin-6-yl)-4-isopropyl-3-methyl-2-(2-azaspiro[3.3]heptan-5-yl)-6H-thieno[2,3-b]pyrrole] |
| 0.15 nM | 34.6 nM | CCc1c(C2CCN(C(=O)[C@H]3COCCN3)CC2)sc2[nH]c(-c3cc(C)c4ncnn4c3)c(C(C)C)c12 [Example 208] |
| 0.14 nM | 9.43 nM | Cc1c(-c2[nH]c3sc(C4CC(n5cc(C6COCCN6)nn5)C4)c(C)c3c2C(C)C)cn2ncnc2c1C (single isomer, unassigned) [Example 244, 3-(1-(3-(5-(7,8-dimethyl-[1,2,4]triazolo[1,5-a]pyridin-6-yl)-4-isopropyl-3-methyl-6H-thieno[2,3-b]pyrrol-2-yl)cyclobutyl)-1H-1,2,3-triazol-4-yl)morpholine] |
| 0.64 nM | 0.59 nM | Cc1c(-c2[nH]c3sc([C@@H]4C[C@@H]5C[C@H]4CN5CC(=O)N[C@H]4C[C@H](O)C4)c(C)c3c2C(C)C)cn2ncnc2c1C [Example 270] |
| 10 nM | 1.22 nM | Cc1c(-c2[nH]c3sc(C4CC5(CCN(CCS(C)(=O)=O)C5)C4)c(C)c3c2C(C)C)cn2ncnc2c1C (single isomer, unassigned) [Example 314, 5-(7,8-dimethyl-[1,2,4]triazolo[1,5-a]pyridin-6-yl)-4-isopropyl-3-methyl-2-(6-(2-(methylsulfonyl)ethyl)-6-azaspiro[3.4]octan-2-yl)-6H-thieno[2,3-b]pyrrole] |
| 2.32 nM | 10 nM | Cc1c(CC2CCN(CC(N)=O)CC2)sc2[nH]c(-c3cc(C)c4ncnn4c3)c(C(C)C)c12 [Example 210] |
| 15.5 nM | 66.5 nM | Cc1c(-c2[nH]c3sc(-c4cccc(C5CCN(CC(N)=O)CC5)c4)c(C)c3c2C(C)C)cn2ncnc2c1C [Example 223] |
| 0.13 nM | 5.66 nM | Cc1c(-c2[nH]c3sc(C4CCC(N5CC6(C5)CS(=O)(=O)C6)CC4)c(C)c3c2C(C)C)cn2ncnc2c1C (stereo not drawn) [Example 301] |
| 0.49 nM | 0.12 nM | Cc1c(-c2[nH]c3sc([C@@H]4C[C@@H]5C[C@H]4CN5CC(=O)NC45CC(O)(C4)C5)c(C)c3c2C(C)C)cn2ncnc2c1C [Example 271] |
| 2.51 nM | 1.19 nM | Cc1c(-c2[nH]c3sc(C4CC5(CCN(CCS(C)(=O)=O)C5)C4)c(C)c3c2C(C)C)cn2ncnc2c1C (single isomer, unassigned) [Example 313, 5-(7,8-dimethyl-[1,2,4]triazolo[1,5-a]pyridin-6-yl)-4-isopropyl-3-methyl-2-(6-(2-(methylsulfonyl)ethyl)-6-azaspiro[3.4]octan-2-yl)-6H-thieno[2,3-b]pyrrole] |
| 0.32 nM | 3.02 nM | Cc1c(C2CCNCC2)sc2[nH]c(-c3cn(C)c4ncccc34)c(C(C)C)c12 [Example 249] |
